Laboratory results: paper PMC9307329, “Enzymes Inhibition and Antioxidant Potential of Medicinal Plants Growing in Oman” (BioMed Research International, 2022)

Molecular target: Jack bean urease (Canavalia ensiformis, UniProt P07374)
Conditions: substrate urea; phosphate buffer pH […]; […]°C; […] min

Chain of Jack bean urease (P07374 whole entry, looked up): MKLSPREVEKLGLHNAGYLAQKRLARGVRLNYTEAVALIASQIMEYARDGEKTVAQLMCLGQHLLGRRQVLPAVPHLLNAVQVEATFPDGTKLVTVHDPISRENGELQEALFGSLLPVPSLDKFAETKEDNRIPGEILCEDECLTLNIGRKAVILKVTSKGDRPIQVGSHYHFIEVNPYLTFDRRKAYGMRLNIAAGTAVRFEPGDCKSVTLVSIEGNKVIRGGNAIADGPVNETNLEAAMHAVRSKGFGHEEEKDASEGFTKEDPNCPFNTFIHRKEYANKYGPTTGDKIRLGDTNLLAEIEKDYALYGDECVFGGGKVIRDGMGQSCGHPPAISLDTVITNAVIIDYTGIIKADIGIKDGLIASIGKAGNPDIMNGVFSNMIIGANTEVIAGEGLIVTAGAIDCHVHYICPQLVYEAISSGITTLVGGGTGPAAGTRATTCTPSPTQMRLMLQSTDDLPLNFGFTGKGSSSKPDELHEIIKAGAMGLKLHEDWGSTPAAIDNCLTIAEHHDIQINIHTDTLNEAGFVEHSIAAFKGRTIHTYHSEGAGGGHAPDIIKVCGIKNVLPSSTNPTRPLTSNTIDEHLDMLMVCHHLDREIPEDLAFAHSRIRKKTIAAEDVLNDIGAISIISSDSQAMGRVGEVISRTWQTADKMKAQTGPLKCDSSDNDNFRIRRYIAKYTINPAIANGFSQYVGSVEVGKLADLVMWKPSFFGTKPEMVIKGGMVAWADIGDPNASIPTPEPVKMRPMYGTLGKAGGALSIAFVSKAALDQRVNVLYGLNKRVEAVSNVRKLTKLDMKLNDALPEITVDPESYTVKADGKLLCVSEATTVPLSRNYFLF

SMILES: NC(N)=S [Thiourea]
- Urease IC50 ± SEM: 1.58 ± 0.95 µg/mL
